17 compounds from patent publication US10040781B2, “Tank-binding kinase inhibitor compounds” (Gilead Sciences, Inc., priority 2014, dated 2018) can be followed below.

Structures are written as SMILES.

The target of assay [1] is IKKε (Homo sapiens (Human), UniProt Q14164). Put plainly: IKKε TR-FRET enzymatic assay. It counts as biochemical. To be noted: read-out: IKKe IC50.
In assay [2] the target is hJAK2 (Homo sapiens (Human), UniProt O60674). Description: hJAK2 LANCE TR-FRET enzymatic assay. The format is biochemical. Particulars: read-out: JAK2 IC50.
Assay [3] deals with TBK1 (Homo sapiens (Human), UniProt Q9UHD2). Description: TBK1 TR-FRET enzymatic assay.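 Note: phosphorylation of a biotinylated Ser/Thr peptide by purified full-length recombinant TBK1, read by TR-FRET after 240 min at 25 °C, IC50 is the geometric mean of at least four runs.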
TBK1, sequence (Q9UHD2 whole entry): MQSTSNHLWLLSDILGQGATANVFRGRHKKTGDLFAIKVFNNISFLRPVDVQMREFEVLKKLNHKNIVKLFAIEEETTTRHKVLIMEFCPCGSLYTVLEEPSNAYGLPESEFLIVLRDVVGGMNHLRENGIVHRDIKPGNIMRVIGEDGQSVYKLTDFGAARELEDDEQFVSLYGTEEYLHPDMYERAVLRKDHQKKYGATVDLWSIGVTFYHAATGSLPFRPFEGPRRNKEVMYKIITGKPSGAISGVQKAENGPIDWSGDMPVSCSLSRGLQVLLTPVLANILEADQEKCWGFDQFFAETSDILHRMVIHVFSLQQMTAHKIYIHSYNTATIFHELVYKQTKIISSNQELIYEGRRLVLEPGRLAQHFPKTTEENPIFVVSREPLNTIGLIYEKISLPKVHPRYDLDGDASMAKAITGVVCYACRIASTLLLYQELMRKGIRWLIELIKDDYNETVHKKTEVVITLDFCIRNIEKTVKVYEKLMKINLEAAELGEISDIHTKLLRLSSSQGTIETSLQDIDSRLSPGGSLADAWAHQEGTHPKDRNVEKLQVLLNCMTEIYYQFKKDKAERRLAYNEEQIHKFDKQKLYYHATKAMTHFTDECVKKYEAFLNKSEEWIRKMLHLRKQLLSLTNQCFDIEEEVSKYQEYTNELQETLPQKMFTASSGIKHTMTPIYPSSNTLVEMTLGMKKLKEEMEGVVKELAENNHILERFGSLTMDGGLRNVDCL

IKKε, sequence (Q14164 whole entry): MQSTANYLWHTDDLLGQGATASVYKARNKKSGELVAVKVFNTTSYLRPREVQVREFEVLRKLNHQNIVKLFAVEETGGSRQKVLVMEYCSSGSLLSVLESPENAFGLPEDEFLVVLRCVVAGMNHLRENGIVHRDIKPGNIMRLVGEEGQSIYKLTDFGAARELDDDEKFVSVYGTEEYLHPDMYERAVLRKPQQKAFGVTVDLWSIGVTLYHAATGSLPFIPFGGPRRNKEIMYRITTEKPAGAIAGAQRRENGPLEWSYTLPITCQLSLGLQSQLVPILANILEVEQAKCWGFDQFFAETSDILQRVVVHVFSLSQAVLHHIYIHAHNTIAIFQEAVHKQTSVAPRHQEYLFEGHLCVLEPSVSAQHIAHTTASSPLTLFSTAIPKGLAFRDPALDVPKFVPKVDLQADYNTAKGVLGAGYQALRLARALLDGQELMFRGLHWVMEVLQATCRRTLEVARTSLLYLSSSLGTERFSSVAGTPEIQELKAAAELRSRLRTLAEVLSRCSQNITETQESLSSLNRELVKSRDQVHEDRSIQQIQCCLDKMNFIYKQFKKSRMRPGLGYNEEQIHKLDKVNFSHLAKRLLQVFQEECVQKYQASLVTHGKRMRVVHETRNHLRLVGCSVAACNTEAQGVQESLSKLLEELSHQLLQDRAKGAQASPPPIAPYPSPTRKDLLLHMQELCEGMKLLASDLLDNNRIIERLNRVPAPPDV
hJAK2, sequence (O60674 whole entry): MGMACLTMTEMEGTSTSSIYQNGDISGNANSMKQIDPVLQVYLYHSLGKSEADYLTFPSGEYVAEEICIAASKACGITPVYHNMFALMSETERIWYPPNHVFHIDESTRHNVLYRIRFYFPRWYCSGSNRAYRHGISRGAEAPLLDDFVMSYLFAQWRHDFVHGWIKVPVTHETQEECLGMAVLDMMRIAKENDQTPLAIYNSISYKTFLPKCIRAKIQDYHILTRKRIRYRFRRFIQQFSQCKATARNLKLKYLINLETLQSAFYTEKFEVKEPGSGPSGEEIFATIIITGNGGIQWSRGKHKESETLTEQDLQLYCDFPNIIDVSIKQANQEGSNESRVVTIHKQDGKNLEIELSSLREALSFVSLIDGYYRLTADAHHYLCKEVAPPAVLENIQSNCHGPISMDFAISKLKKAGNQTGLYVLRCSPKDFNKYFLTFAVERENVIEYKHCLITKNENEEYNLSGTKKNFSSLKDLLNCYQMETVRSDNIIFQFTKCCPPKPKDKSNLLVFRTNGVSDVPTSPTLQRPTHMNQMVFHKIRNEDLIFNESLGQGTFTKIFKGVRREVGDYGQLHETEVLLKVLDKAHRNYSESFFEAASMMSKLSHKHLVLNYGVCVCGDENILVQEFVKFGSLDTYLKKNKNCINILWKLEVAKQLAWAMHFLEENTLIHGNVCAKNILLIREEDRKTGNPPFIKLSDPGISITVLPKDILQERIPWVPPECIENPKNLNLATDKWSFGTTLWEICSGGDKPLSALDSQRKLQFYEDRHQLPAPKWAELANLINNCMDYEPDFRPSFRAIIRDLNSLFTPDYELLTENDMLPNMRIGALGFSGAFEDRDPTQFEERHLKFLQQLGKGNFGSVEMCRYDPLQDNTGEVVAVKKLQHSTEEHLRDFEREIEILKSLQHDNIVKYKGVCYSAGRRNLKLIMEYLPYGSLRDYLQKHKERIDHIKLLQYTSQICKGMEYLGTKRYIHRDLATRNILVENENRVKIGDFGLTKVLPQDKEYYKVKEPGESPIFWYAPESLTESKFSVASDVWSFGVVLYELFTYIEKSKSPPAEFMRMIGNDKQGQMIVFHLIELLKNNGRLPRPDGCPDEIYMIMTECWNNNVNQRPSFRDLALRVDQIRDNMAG

Consider `C[C@H]1CN(C(=O)CO)C[C@@H]1Oc1ccc(-c2ncnc(Nc3ccc(N4CCN(C5COC5)CC4)cc3)n2)cc1C#N` [Example 192, 2-(((3R,4S)-1-(2-hydroxyacetyl)-4-methylpyrrolidin-3-yl)oxy)-5-(4-((4-(4-(oxetan-3-yl)piperazin-1-yl)phenyl)amino)-1,3,5-triazin-2-yl)benzonitrile], for which the IC50 is 30 nM in assay [1], not below 1000 nM in assay [2] and 8 nM in assay [3].
In the same order, the values of `N#Cc1cc(-c2ncnc(Nc3ccc(N4CCN(C5COC5)CC4)cc3)n2)ccc1O[C@@H]1CN(C(=O)CO)C[C@H]1F` [Example 193, 2-(((3R,4R)-4-fluoro-1-(2-hydroxyacetyl)pyrrolidin-3-yl)oxy)-5-(4-((4-(4-(oxetan-3-yl)piperazin-1-yl)phenyl)amino)-1,3,5-triazin-2-yl)benzonitrile] are 48 nM, not below 1000 nM and 14 nM.
In the same order, the values of `N#Cc1cc(-c2ncnc(Nc3ccc(N4CCN(C5COC5)CC4)cc3)n2)ccc1OC1CNCC1(F)F` (stereo not drawn) [Example 194, 2-((4,4-difluoropyrrolidin-3-yl)oxy)-5-(4-((4-(4-(oxetan-3-yl)piperazin-1-yl)phenyl)amino)-1,3,5-triazin-2-yl)benzonitrile] are 29 nM, 308 nM and 6 nM.
The matching figures for `CS(=O)(=O)N1CC[C@@H](Oc2ccc(-c3ncnc(Nc4ccc(N5CCN(C6COC6)CC5)cc4)n3)cc2C#N)C1` [Example 197, (R)-2-((1-(methylsulfonyl)pyrrolidin-3-yl)oxy)-5-(4-((4-(4-(oxetan-3-yl)piperazin-1-yl)phenyl)amino)-1,3,5-triazin-2-yl)benzonitrile]: 79 nM, 173 nM and 26 nM.
With `C[C@H](O)C(=O)N1CC(Oc2ccc(-c3ncnc(Nc4ccc(N5CCN(C6COC6)CC5)cc4)n3)cc2C#N)C(F)(F)C1` (stereo partly drawn) [Example 198, 2-((4,4-difluoro-1-((S)-2-hydroxypropanoyl)pyrrolidin-3-yl)oxy)-5-(4-((4-(4-(oxetan-3-yl)piperazin-1-yl)phenyl)amino)-1,3,5-triazin-2-yl)benzonitrile], the IC50 is 68 nM in assay [1], 265 nM in assay [2] and 10 nM in assay [3].
The matching figures for `N#Cc1cc(-c2ncnc(Nc3ccc(N4CCN(C5COC5)CC4)cc3)n2)ccc1O[C@@H]1CCC(=O)NC1` [Example 199, (R)-5-(4-((4-(4-(oxetan-3-yl)piperazin-1-yl)phenyl)amino)-1,3,5-triazin-2-yl)-2-((6-oxopiperidin-3-yl)oxy)benzonitrile]: 6 nM, 200 nM and 4 nM.
In the same order, the values of `N#Cc1cc(-c2ncnc(Nc3ccc(N4CCN(C5COC5)CC4)cc3)n2)ccc1N1CC[C@@H](F)C1` [Example 200, (R)-2-(3-fluoropyrrolidin-1-yl)-5-(4-((4-(4-(oxetan-3-yl)piperazin-1-yl)phenyl)amino)-1,3,5-triazin-2-yl)benzonitrile] are 7 nM, 109 nM and 3 nM.
Take `N#Cc1cc(-c2ncnc(Nc3ccc(N4CCN(C5COC5)CC4)cc3)n2)ccc1N1CC[C@H](F)C1` [Example 201, (S)-2-(3-fluoropyrrolidin-1-yl)-5-(4-((4-(4-(oxetan-3-yl)piperazin-1-yl)phenyl)amino)-1,3,5-triazin-2-yl)benzonitrile]: the results for the IC50 in assay [1], in assay [2] and in assay [3] were 5 nM, 69 nM and 1 nM, respectively.
For the compound `N#Cc1cc(-c2ncnc(Nc3ccc(N4CCN(C5COC5)CC4)cc3)n2)ccc1N1CC[C@@H](O)C1` [Example 202, (R)-2-(3-hydroxypyrrolidin-1-yl)-5-(4-((4-(4-(oxetan-3-yl)piperazin-1-yl)phenyl)amino)-1,3,5-triazin-2-yl)benzonitrile], the IC50 in assay [1] turned out to be 13 nM; in assay [2], 192 nM; in assay [3] it was 3 nM.
In the same order, the values of `N#Cc1cc(-c2ncnc(Nc3ccc(N4CCN(C5COC5)CC4)cc3)n2)ccc1N1CC[C@H](O)C1` [Example 203, (S)-2-(3-hydroxypyrrolidin-1-yl)-5-(4-((4-(4-(oxetan-3-yl)piperazin-1-yl)phenyl)amino)-1,3,5-triazin-2-yl)benzonitrile] are 27 nM, 315 nM and 7 nM.
In the same order, the values of `C[C@@H]1C[C@@H](O)CN1c1ccc(-c2ncnc(Nc3ccc(N4CCN(C5COC5)CC4)cc3)n2)cc1C#N` [Example 204, 2-((2R,4R)-4-hydroxy-2-methylpyrrolidin-1-yl)-5-(4-((4-(4-(oxetan-3-yl)piperazin-1-yl)phenyl)amino)-1,3,5-triazin-2-yl)benzonitrile] are 18 nM, 47 nM and 1 nM.
In the same order, the values of `C[C@H]1C[C@@H](O)CN1c1ccc(-c2ncnc(Nc3ccc(N4CCN(C5COC5)CC4)cc3)n2)cc1C#N` [Example 205, 2-((2S,4R)-4-hydroxy-2-methylpyrrolidin-1-yl)-5-(4-((4-(4-(oxetan-3-yl)piperazin-1-yl)phenyl)amino)-1,3,5-triazin-2-yl)benzonitrile] are 17 nM, 51 nM and 1 nM.
In the case of `N#Cc1cc(-c2ncnc(Nc3ccc(N4CCN(C5COC5)CC4)cc3)n2)ccc1N1CCC2(COC2)C1` [Example 206, 5-(4-((4-(4-(oxetan-3-yl)piperazin-1-yl)phenyl)amino)-1,3,5-triazin-2-yl)-2-(2-oxa-6-azaspiro[3.4]octan-6-yl)benzonitrile], the IC50 in assay [1] amounted to 20 nM; in assay [2] it was 236 nM; in assay [3] it was 12 nM.
The matching figures for `N#Cc1cc(-c2ncnc(Nc3ccc(N4CCN(C5COC5)CC4)cc3)n2)ccc1N1CCC2(CCO2)C1` (stereo not drawn) [Example 207, 5-(4-((4-(4-(oxetan-3-yl)piperazin-1-yl)phenyl)amino)-1,3,5-triazin-2-yl)-2-(1-oxa-6-azaspiro[3.4]octan-6-yl)benzonitrile]: 128 nM, 258 nM and 38 nM.
For `N#Cc1cc(-c2ncnc(Nc3ccc(N4CCN(C5COC5)CC4)cc3)n2)ccc1N1CCC2(C1)OCCO2` [Example 208, 5-(4-((4-(4-(oxetan-3-yl)piperazin-1-yl)phenyl)amino)-1,3,5-triazin-2-yl)-2-(1,4-dioxa-7-azaspiro[4.4]nonan-7-yl)benzonitrile], the values for the IC50 in assay [1], in assay [2] and in assay [3] were 283 nM, 330 nM and 64 nM, respectively.
In the same order, the values of `N#Cc1cc(-c2ncnc(Nc3ccc(N4CCN(C5COC5)CC4)cc3)n2)ccc1N1CC2(CCO2)C1` [Example 210, 5-(4-((4-(4-(oxetan-3-yl)piperazin-1-yl)phenyl)amino)-1,3,5-triazin-2-yl)-2-(1-oxa-6-azaspiro[3.3]heptan-6-yl)benzonitrile] are 71 nM, 354 nM and 26 nM.
For the compound `N#Cc1cc(-c2ncnc(Nc3ccc(N4CCN(C5COC5)CC4)cc3)n2)ccc1N1CC2(CCOCC2)C1` [Example 211, 5-(4-((4-(4-(oxetan-3-yl)piperazin-1-yl)phenyl)amino)-1,3,5-triazin-2-yl)-2-(7-oxa-2-azaspiro[3.5]nonan-2-yl)benzonitrile], the figures for the half-inhibitory concentration (IC50) in assay [1], in assay [2] and in assay [3] were 22 nM, 170 nM and 6 nM, respectively.
